Data: patent US8268990B2, “Compounds” (AstraZeneca AB, priority 2007, dated 2012)

What follows are molecules tested against T1, Recombinant human TLR7 (Homo sapiens, UniProt Q9NYK1) (assay: Human TLR7 Assay (SEAP reporter)). Settings: HEK293 cell line stably expressing human TLR7 and pNiFty2-SEAP reporter; SEAP induction after overnight incubation at 37° C., 0.1% (v/v) DMSO.
T1 construct: expressed in transfected cells; host or cells: HEK293 cell line stably expressing the pNiFty2-SEAP reporter plasmid; TLR7 in vector pUNO, blasticidin selection
T1 sequence (Q9NYK1 27-1049): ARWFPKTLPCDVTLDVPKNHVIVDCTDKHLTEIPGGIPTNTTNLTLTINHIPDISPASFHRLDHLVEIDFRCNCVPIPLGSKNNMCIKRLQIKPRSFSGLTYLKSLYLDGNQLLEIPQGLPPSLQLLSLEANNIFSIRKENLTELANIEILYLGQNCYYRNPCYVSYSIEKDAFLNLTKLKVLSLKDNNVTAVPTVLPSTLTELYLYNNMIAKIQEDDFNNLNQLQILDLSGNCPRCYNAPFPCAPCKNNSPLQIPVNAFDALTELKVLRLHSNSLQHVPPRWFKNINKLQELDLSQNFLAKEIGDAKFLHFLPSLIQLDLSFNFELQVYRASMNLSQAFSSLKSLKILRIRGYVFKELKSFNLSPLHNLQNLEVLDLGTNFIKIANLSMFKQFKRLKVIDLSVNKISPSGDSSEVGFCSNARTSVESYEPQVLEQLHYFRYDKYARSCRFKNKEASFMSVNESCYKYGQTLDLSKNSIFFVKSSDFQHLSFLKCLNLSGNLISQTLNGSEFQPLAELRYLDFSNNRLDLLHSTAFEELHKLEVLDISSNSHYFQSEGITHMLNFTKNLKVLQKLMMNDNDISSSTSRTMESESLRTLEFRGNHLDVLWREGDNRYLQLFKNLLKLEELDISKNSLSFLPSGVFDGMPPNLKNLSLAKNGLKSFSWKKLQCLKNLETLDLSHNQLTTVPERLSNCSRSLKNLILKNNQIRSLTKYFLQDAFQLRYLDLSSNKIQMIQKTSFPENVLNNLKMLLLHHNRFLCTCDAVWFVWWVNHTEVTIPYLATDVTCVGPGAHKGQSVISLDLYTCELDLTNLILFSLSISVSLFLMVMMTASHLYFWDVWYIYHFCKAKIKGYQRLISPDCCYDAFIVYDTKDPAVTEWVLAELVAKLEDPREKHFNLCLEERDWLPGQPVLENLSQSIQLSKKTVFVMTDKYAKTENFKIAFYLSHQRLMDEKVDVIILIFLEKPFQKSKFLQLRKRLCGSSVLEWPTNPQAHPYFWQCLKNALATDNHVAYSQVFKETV
Format: cell-based
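Also: SEAP driven by an NFkB-responsive composite promoter, pEC50 read at half of each compound's own maximal SEAP induction.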
Excerpt: Recombinant human TLR7 was stably expressed in a HEK293 cell line already stably expressing the pNiFty2-SEAP reporter plasmid; integration of the reporter gene was maintained by selection with the antibiotic zeocin. The most common variant sequence of human TLR7 (represented by the EMBL sequence AF240467) was cloned into the mammalian cell expression vector pUNO and transfected into this reporter cell-line. Transfectants with stable expression were selected using the antibiotic blasticidin. In this reporter cell-line, expression of secreted alkaline phosphatase (SEAP) is controlled by an NFkB/ELAM-1 composite promoter comprising five NFkB sites combined with the proximal ELAM-1 promoter. TLR signaling leads to the translocation of NFkB and activation of the promoter results in expression of the SEAP gene. TLR7-specific activation was assessed by determining the level of SEAP produced following overnight incubation of the cells at 37° C. with the standard compound in the presence of 0.1% (v/v) dimethylsulfoxide (DMSO). Concentration dependent induction of SEAP production by compounds was expressed as the concentration of compound which produced half of the maximal level of SEAP induction for that compound (pEC50).

Question: How did the EC50 turn out when CCCCCNc1nc(N)nc(C)c1Cc1ccc(CC(=O)OCCCCN2CCS(=O)(=O)CC2)cc1 [Example 64, 4-(1,1-Dioxidothiomorpholin-4-yl)butyl(4-{[2-amino-4-methyl-6-(pentylamino)pyrimidin-5-yl]methyl}phenyl)acetate] was run?
Answer: The EC50 was 2510 nM.

Question: CCCCCNc1nc(N)nc(C)c1Cc1ccc(CC(=O)OCCC2CCN(C)CC2)cc1 [Example 66, 2-(1-Methylpiperidin-4-yl)ethyl 2-(4-((2-amino-4-methyl-6-(pentylamino)pyrimidin-5-yl)methyl)phenyl)acetate] was tested. Which EC50 did it give?
Answer: The EC50 was 158 nM.

Question: With CCCCCNc1nc(N)nc(C)c1Cc1ccc(CC(=O)OCC2CCNCC2)cc1 [Example 67, Piperidin-4-ylmethyl 2-(4-((2-amino-4-methyl-6-(pentylamino)pyrimidin-5-yl)methyl)phenyl)acetate] as the molecule, how does the EC50 read?
Answer: The EC50 was 794 nM.

Question: CCCCCNc1nc(N)nc(C)c1Cc1ccc(CC(=O)OCCCCN2CCC(N(C)C)CC2)cc1 [Example 68, 4-(4-(Dimethylamino)piperidin-1-yl)butyl 2-(4-((2-amino-4-methyl-6-(pentylamino)pyrimidin-5-yl)methyl)phenyl)acetate] was tested. Which EC50 did it give?
Answer: The EC50 was 631 nM.

Question: CCCCNc1nc(N)nc(C)c1Cc1ccc(CC(=O)OCC2CCN(C)CC2)cc1 [Example 69, (1-Methylpiperidin-4-yl)methyl 2-(4-((2-amino-4-(butylamino)-6-methylpyrimidin-5-yl)methyl)phenyl)acetate] was tested. Which EC50 did it give?
Answer: The EC50 was 126 nM.

Question: For CCC[C@@H](CO)Nc1nc(N)nc(C)c1Cc1ccc(CC(=O)OCCCCN(C)C)cc1 [Example 70, (S)-4-(Dimethylamino)butyl 2-(4-((2-amino-4-(1-hydroxypentan-2-ylamino)-6-methylpyrimidin-5-yl)methyl)phenyl)acetate], which EC50 is on record?
Answer: Its EC50 is 1260 nM.

Question: For CCC[C@@H](CO)Nc1nc(N)nc(C)c1Cc1ccc(CC(=O)OCC2CCN(C)CC2)cc1OC [Example 71, (S)-(1-Methylpiperidin-4-yl)methyl 2-(4-((2-amino-4-(1-hydroxypentan-2-ylamino)-6-methylpyrimidin-5-yl)methyl)-3-methoxyphenyl)acetate], which EC50 is on record?
Answer: Its EC50 is 20 nM.

Question: How did the EC50 turn out when CCCCNc1nc(N)nc(C)c1Cc1ccc(CC(=O)OCC2CCN(C)CC2)cc1OC [Example 72, (1-Methylpiperidin-4-yl)methyl 2-(4-((2-amino-4-(butylamino)-6-methylpyrimidin-5-yl)methyl)-3-methoxyphenyl)acetate] was run?
Answer: Its EC50 is 15.8 nM.

Question: With CCCCNc1nc(N)nc(C)c1Cc1ccc(CC(=O)OCCCCN2CCCC2)cc1OC [Example 73, 4-(Pyrrolidin-1-yl)butyl 2-(4-((2-amino-4-(butylamino)-6-methylpyrimidin-5-yl)methyl)-3-methoxyphenyl)acetate] as the molecule, how does the EC50 read?
Answer: The EC50 was 5.01 nM.

Question: CCC[C@@H](CCO)Nc1nc(N)nc(C)c1Cc1ccc(CC(=O)OCC2CCN(C)CC2)cc1F [Example 74, (S)-(1-Methylpiperidin-4-yl)methyl 2-(4-((2-amino-4-(1-hydroxyhexan-3-ylamino)-6-methylpyrimidin-5-yl)methyl)-3-fluorophenyl)acetate] was tested. Which EC50 did it give?
Answer: Its EC50 is 39.8 nM.

Question: CCC[C@@H](CCO)Nc1nc(N)nc(C)c1Cc1ccc(CC(=O)OC)cc1O [Example 75, (S)-Methyl 2-(4-((2-amino-4-(1-hydroxyhexan-3-ylamino)-6-methylpyrimidin-5-yl)methyl)-3-hydroxyphenyl)acetate] was tested. Which EC50 did it give?
Answer: The EC50 was 6.31 nM.

Question: Which EC50 does the source give for CCC[C@@H](CO)Nc1nc(N)nc(C)c1Cc1ccc(CC(=O)OCC2CCN(C)CC2)cc1O [Example 76, (S)-(1-Methylpiperidin-4-yl)methyl 2-(4-((2-amino-4-(1-hydroxypentan-2-ylamino)-6-methylpyrimidin-5-yl)methyl)-3-hydroxyphenyl)acetate] here?
Answer: The EC50 was 631 nM.

Question: Which EC50 does the source give for CCCCNc1nc(N)nc(C)c1Cc1ccc(CC(=O)OC)cc1O [Example 77, Methyl 2-(4-((2-amino-4-(butylamino)-6-methylpyrimidin-5-yl)methyl)-3-hydroxyphenyl)acetate] here?
Answer: Its EC50 is 63.1 nM.

Question: Which EC50 does the source give for CCC[C@@H](CCO)Nc1nc(N)nc(C)c1Cc1ccc(CC(=O)OCCCCN2CCCC2)cc1O [Example 78, (S)-4-(Pyrrolidin-1-yl)butyl 2-(4-((2-amino-4-(1-hydroxyhexan-3-ylamino)-6-methylpyrimidin-5-yl)methyl)-3-hydroxyphenyl)acetate] here?
Answer: The EC50 was 50.1 nM.

Question: For CCCCNc1nc(N)nc(C)c1Cc1ccc(CC(=O)OCCCCN2CCCC2)cc1O [Example 79, 4-(Pyrrolidin-1-yl)butyl 2-(4-((2-amino-4-(butylamino)-6-methylpyrimidin-5-yl)methyl)-3-hydroxyphenyl)acetate], which EC50 is on record?
Answer: The EC50 was 126 nM.

Question: Which EC50 does the source give for CC[C@H](O)CNc1nc(N)nc(C)c1Cc1ccc(CC(=O)OCC2CCN(C)CC2)cc1 [Example 81, (S)-(1-Methylpiperidin-4-yl)methyl 2-(4-((2-amino-4-(2-hydroxybutylamino)-6-methylpyrimidin-5-yl)methyl)phenyl)acetate] here?
Answer: Its EC50 is 1000 nM.

Question: Which EC50 does the source give for CCCCNc1nc(N)nc(C)c1Cc1ccc(CC(=O)OCCCCN2CCCC2)cc1 [Example 82, 4-(Pyrrolidin-1-yl)butyl 2-(4-((2-amino-4-(butylamino)-6-methylpyrimidin-5-yl)methyl)phenyl)acetate] here?
Answer: Its EC50 is 100 nM.

Question: CCCCNc1nc(N)nc(C)c1Cc1cc(CC(=O)OCC2CCN(C)CC2)ccc1OC [Example 83, (1-Methylpiperidin-4-yl)methyl 2-(3-((2-amino-4-(butylamino)-6-methylpyrimidin-5-yl)methyl)-4-methoxyphenyl)acetate] was tested. Which EC50 did it give?
Answer: The EC50 was 20 nM.

Question: Which EC50 does the source give for CCCCCNc1nc(N)nc(C)c1Cc1cccc(CC(=O)OCCCCN2CCCC2)c1 [Example 84, 4-(Pyrrolidin-1-yl)butyl 2-(3-((2-amino-4-methyl-6-(pentylamino)pyrimidin-5-yl)methyl)phenyl)acetate] here?
Answer: The EC50 was 316 nM.

Question: For CCCCCNc1nc(N)nc(C)c1Cc1cccc(CC(=O)OCC2CCN(C)CC2)c1 [Example 85, (1-Methylpiperidin-4-yl)methyl 2-(3-((2-amino-4-methyl-6-(pentylamino)pyrimidin-5-yl)methyl)phenyl)acetate], which EC50 is on record?
Answer: The EC50 was 501 nM.

Question: Which EC50 does the source give for CCC[C@@H](CCO)Nc1nc(N)nc(C)c1Cc1ccc(CC(=O)OCCCCN(C)C)cc1F [Example 86, (S)-4-(Dimethylamino)butyl 2-(4-((2-amino-4-(1-hydroxyhexan-3-ylamino)-6-methylpyrimidin-5-yl)methyl)-3-fluorophenyl)acetate] here?
Answer: The EC50 was 200 nM.

Question: CCC[C@@H](CCO)Nc1nc(N)nc(C)c1Cc1ccc(CC(=O)OCCCCN2CCN(C)CC2)cc1F [Example 87, (S)-4-(4-Methylpiperazin-1-yl)butyl 2-(4-((2-amino-4-(1-hydroxyhexan-3-ylamino)-6-methylpyrimidin-5-yl)methyl)-3-fluorophenyl)acetate] was tested. Which EC50 did it give?
Answer: The EC50 was 25.1 nM.

Question: Which EC50 does the source give for CCC[C@@H](CO)Nc1nc(N)nc(C)c1Cc1ccc(CC(=O)OC)cc1O [Example 88, (S)-Methyl 2-(4-((2-amino-4-(1-hydroxypentan-2-ylamino)-6-methylpyrimidin-5-yl)methyl)-3-hydroxyphenyl)acetate] here?
Answer: Its EC50 is 100 nM.

Question: For CCCCNc1nc(N)nc(C)c1Cc1ccc(CC(=O)OCCO)cc1OC [Example 89, 2-Hydroxyethyl 2-(4-((2-amino-4-(butylamino)-6-methylpyrimidin-5-yl)methyl)-3-methoxyphenyl)acetate], which EC50 is on record?
Answer: Its EC50 is 50.1 nM.

Question: With CCCCNc1nc(N)nc(C)c1Cc1ccc(CC(=O)OCCCCN2CCC(N(C)C)CC2)cc1OC [Example 90, 4-(4-(Dimethylamino)piperidin-1-yl)butyl 2-(4-((2-amino-4-(butylamino)-6-methylpyrimidin-5-yl)methyl)-3-methoxyphenyl)acetate] as the molecule, how does the EC50 read?
Answer: The EC50 was 25.1 nM.

Question: How did the EC50 turn out when CCCCNc1nc(N)nc(C)c1Cc1ccc(CC(=O)OCCCCO)cc1OC [Example 91, 4-Hydroxybutyl 2-(4-((2-amino-4-(butylamino)-6-methylpyrimidin-5-yl)methyl)-3-methoxyphenyl)acetate] was run?
Answer: The EC50 was 20 nM.

Question: With CCCCNc1nc(N)nc(C)c1Cc1ccc(CC(=O)OCCCS(C)(=O)=O)cc1OC [Example 92, 3-(Methylsulfonyl)propyl 2-(4-((2-amino-4-(butylamino)-6-methylpyrimidin-5-yl)methyl)-3-methoxyphenyl)acetate] as the molecule, how does the EC50 read?
Answer: The EC50 was 20 nM.

Question: For CCCCNc1nc(N)nc(C)c1Cc1ccc(CC(=O)OCCCO)cc1OC [Example 93, 3-Hydroxypropyl 2-(4-((2-amino-4-(butylamino)-6-methylpyrimidin-5-yl)methyl)-3-methoxyphenyl)acetate], which EC50 is on record?
Answer: The EC50 was 20 nM.

Question: How did the EC50 turn out when CCC[C@@H](CCO)Nc1nc(N)nc(C)c1Cc1ccc(CC(=O)OCCCCN(C)C)cc1 [Example 94, (S)-4-(Dimethylamino)butyl 2-(4-((2-amino-4-(1-hydroxyhexan-3-ylamino)-6-methylpyrimidin-5-yl)methyl)phenyl)acetate] was run?
Answer: The EC50 was 126 nM.
